Reference: paper PMC9798496 (ACS Omega, 2022)
“Also recorded” adds a separate entry of the source.

System: healthy mice
Experiment: MicroPET/CT biodistribution in healthy mice
Type: in vivo
Conditions: PET/CT

OC[C@H]1OC(O)[C@H](F)[C@@H](O)[C@@H]1O (some centres unmarked) [[^18F]FDG, fluorodeoxyglucose]
site of uptake, metabolism and elimination: typical metabolism in the heart, brain, and brown fat; also recorded: uptake was observed in the brain and heart
uptake in the center of the brain: about 1.6 SUV
uptake in the center of the heart: about 2.7 SUV
brain uptake of [18F]FDG relative to [18F]Glc1 (center of the brain): about 20 times
heart uptake of [18F]FDG relative to [18F]Glc1 (center of the heart): about 14 times
